Measured values published in US20220054447A1, “CANNABIS COMPOSITIONS AND METHODS” (priority 2018, published 2022).
Marks after values point to notes of the source that are not given here.

What was measured:
[1] = 9-month stability of dried cannabis drug stored in a vault (not under nitrogen); format: physicochemical; design: Analyte content, Nov. 17, 2016: unit not given beside the values; conditions: for % Change from Day 0: 9-month storage, <0.05 assumed to be 0.05 for calculation; for Analyte content, Aug. 10, 2017 / Analyte content, Nov. 17, 2016: dried cannabis drug stored in a vault, not under nitrogen; for Analyte content, Aug. 10, 2017: 9 months; for Analyte content, Nov. 17, 2016: Day 0
Description: A schematic depicting the production of exemplary cannabinoic acids and subsequent transformation to the related neutral form by conditions such as oxidation, heat and time is shown in FIG. 3.

[2] = cited from earlier work; for log P (octanol/water partition coefficient): United Nations Office on Drugs and Crime, 2009
[3] = Dose uniformity of pellets; format: physicochemical
Description: The dose uniformity studies show improvement subsequent to optimization of the blending process. […] After optimizing the process, the dose uniformity for clinical batches was 5.59% and 5.13% for THC and THCA, respectively.

[4] = Phase 1 clinical batch, before optimization of blending
[5] = clinical batches after optimizing the process

Compound | % Change from Day 0 [1] | Analyte content, Aug. 10, 2017 [1] | Analyte content, Nov. 17, 2016 [1] | log P (octanol/water partition coefficient) [2] | Solubility in ethanol [2] | Solubility in water [2] | Dose uniformity, % variability [3, 4] | Dose uniformity, % variability [3, 5] | Stability ([2]; pure THC, Mechoulam 1970, NIH 1996)
C=C(C)[C@@H]1CCC(C)=C[C@H]1c1c(O)cc(CCCCC)cc1O [CBD, cannabidiol, reference compound] | 1260% | 0.68 | <0.05* | 5.79 | soluble in ethanol | not soluble in water |  |  | 
C=C(C)[C@@H]1CCC(C)=C[C@H]1c1c(O)cc(CCCCC)c(C(=O)O)c1O [CBDA, cannabidiolic acid] | 33.9% | 2.03 | 3.07 |  |  |  |  |  | 
CCCCCc1cc(O)c(C/C=C(\C)CCC=C(C)C)c(O)c1 [CBG, cannabigerol] | 140% | 0.12 | <0.05* |  |  |  |  |  | 
CCCCCc1cc(O)c(C/C=C(\C)CCC=C(C)C)c(O)c1C(=O)O [CBGA, cannabigerolic acid] |  | 0.26 | 0.37 |  |  |  |  |  | 
CCCCCc1cc(O)c2c(c1)OC(C)(C)[C@@H]1CCC(C)=C[C@@H]21 [THC, tetrahydrocannabinol, reference compound] | 733% | 1.75 | 0.21 | 6.99 |  |  | 12.82% | 5.59% | unstable in air, light, and at high temperatures
CCCCCc1cc2c(c(O)c1C(=O)O)[C@@H]1C=C(C)CC[C@H]1C(C)(C)O2 [THCA, tetrahydrocannabinolic acid] |  | 6.02 | 9.68 |  |  |  | 15.07% | 5.13% | 
